Results published in PubChem BioAssay (NCI).
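Grown in 96-well plates, cells were treated for 48 hours with each compound at five concentrations. Insufficient inhibition: endpoint recorded as highest concentration tested. GI50 = concentration required for 50% inhibition of growth. TGI denotes the concentration required for complete inhibition of growth.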

Tests used:
Test in all cases: NCI anticancer screen, dose series, 48 h
SK-MEL-5 melanoma = test system: SK-MEL-5 melanoma
RPMI-8226 leukemia = test system: RPMI-8226 leukemia
LOX IMVI melanoma = test system: LOX IMVI melanoma
SF-268 CNS = test system: SF-268 CNS
NCI-H522 lung = test system: NCI-H522 lung
HOP-62 NSCLC = test system: HOP-62 NSCLC
HCT-116 colon = test system: HCT-116 colon
SK-MEL-2 melanoma = test system: SK-MEL-2 melanoma
SF-539 CNS = test system: SF-539 CNS
HCC-2998 colon = test system: HCC-2998 colon
NCI-H23 lung = test system: NCI-H23 lung
M14 melanoma = test system: M14 melanoma
IGROV1 ovarian = test system: IGROV1 ovarian
EKVX NSCLC = test system: EKVX NSCLC
MDA-MB-231 breast = test system: MDA-MB-231 breast
OVCAR-5 ovarian = test system: OVCAR-5 ovarian
HL-60(TB) leukemia = test system: HL-60(TB) leukemia
SN12C renal = test system: SN12C renal
K-562 leukemia = test system: K-562 leukemia
U251 CNS = test system: U251 CNS
SNB-19 CNS = test system: SNB-19 CNS
CCRF-CEM leukemia = test system: CCRF-CEM leukemia
UACC-257 melanoma = test system: UACC-257 melanoma
HOP-92 NSCLC = test system: HOP-92 NSCLC
A498 renal = test system: A498 renal
SNB-75 CNS = test system: SNB-75 CNS
KM12 colon = test system: KM12 colon
CAKI-1 renal = test system: CAKI-1 renal
DU-145 prostate = test system: DU-145 prostate
SK-OV-3 ovarian = test system: SK-OV-3 ovarian
HT29 colon = test system: HT29 colon
BT-549 breast = test system: BT-549 breast
NCI/ADR-RES ovarian = test system: NCI/ADR-RES ovarian
ACHN renal = test system: ACHN renal
786-0 renal = test system: 786-0 renal
SW-620 colon = test system: SW-620 colon
TK-10 renal = test system: TK-10 renal
MOLT-4 leukemia = test system: MOLT-4 leukemia
OVCAR-8 ovarian = test system: OVCAR-8 ovarian
NCI-H226 lung = test system: NCI-H226 lung
HS 578T breast = test system: HS 578T breast
A549 NSCLC = test system: A549 NSCLC
SF-295 CNS = test system: SF-295 CNS
COLO 205 colon = test system: COLO 205 colon
RXF 393 renal = test system: RXF 393 renal
MALME-3M melanoma = test system: MALME-3M melanoma

**Q.** With `O=c1cc(-c2ccccc2)oc2cc(OCc3cn(Cc4ccc(F)cc4)nn3)cc(O)c12` as the compound, how does the GI50 (SK-MEL-5 melanoma) read?
**A.** Its GI50 is over 100 µM.

**Q.** And the TGI (SK-MEL-5 melanoma)?
**A.** Its TGI is over 100 µM.

**Q.** And the GI50 (RPMI-8226 leukemia)?
**A.** The GI50 was over 100 µM.

**Q.** And the TGI (RPMI-8226 leukemia)?
**A.** The TGI was over 100 µM.

**Q.** And the GI50 (LOX IMVI melanoma)?
**A.** Its GI50 is over 100 µM.

**Q.** What about the TGI (LOX IMVI melanoma) of the same compound?
**A.** Its TGI is over 100 µM.

**Q.** What about the GI50 (SF-268 CNS) of the same compound?
**A.** Its GI50 is 4.32 µM.

**Q.** What about the TGI (SF-268 CNS) of the same compound?
**A.** The TGI was over 100 µM.

**Q.** What about the GI50 (NCI-H522 lung) of the same compound?
**A.** Its GI50 is 6.6 µM.

**Q.** And the TGI (NCI-H522 lung)?
**A.** Its TGI is over 100 µM.

**Q.** What about the GI50 (HOP-62 NSCLC) of the same compound?
**A.** Its GI50 is 3.76 µM.

**Q.** What about the TGI (HOP-62 NSCLC) of the same compound?
**A.** The TGI was 21.7 µM.

**Q.** And the GI50 (HCT-116 colon)?
**A.** Its GI50 is 5.91 µM.

**Q.** What about the TGI (HCT-116 colon) of the same compound?
**A.** Its TGI is over 100 µM.

**Q.** What about the GI50 (SK-MEL-2 melanoma) of the same compound?
**A.** The GI50 was 6.8 µM.

**Q.** And the TGI (SK-MEL-2 melanoma)?
**A.** The TGI was 36.1 µM.

**Q.** And the GI50 (SF-539 CNS)?
**A.** Its GI50 is 5.17 µM.

**Q.** And the TGI (SF-539 CNS)?
**A.** The TGI was over 100 µM.

**Q.** And the GI50 (HCC-2998 colon)?
**A.** The GI50 was over 100 µM.

**Q.** What about the TGI (HCC-2998 colon) of the same compound?
**A.** The TGI was over 100 µM.

**Q.** What about the GI50 (NCI-H23 lung) of the same compound?
**A.** The GI50 was 7.7 µM.

**Q.** What about the TGI (NCI-H23 lung) of the same compound?
**A.** The TGI was over 100 µM.

**Q.** And the GI50 (M14 melanoma)?
**A.** The GI50 was over 100 µM.

**Q.** And the TGI (M14 melanoma)?
**A.** The TGI was over 100 µM.

**Q.** What about the GI50 (IGROV1 ovarian) of the same compound?
**A.** The GI50 was 17.6 µM.

**Q.** And the TGI (IGROV1 ovarian)?
**A.** Its TGI is over 100 µM.

**Q.** And the GI50 (EKVX NSCLC)?
**A.** Its GI50 is 63.8 µM.

**Q.** And the TGI (EKVX NSCLC)?
**A.** The TGI was over 100 µM.

**Q.** What about the GI50 (MDA-MB-231 breast) of the same compound?
**A.** Its GI50 is 16.6 µM.

**Q.** And the TGI (MDA-MB-231 breast)?
**A.** Its TGI is over 100 µM.

**Q.** What about the GI50 (OVCAR-5 ovarian) of the same compound?
**A.** The GI50 was over 100 µM.

**Q.** What about the TGI (OVCAR-5 ovarian) of the same compound?
**A.** Its TGI is over 100 µM.

**Q.** What about the GI50 (HL-60(TB) leukemia) of the same compound?
**A.** Its GI50 is over 100 µM.

**Q.** And the TGI (HL-60(TB) leukemia)?
**A.** The TGI was over 100 µM.

**Q.** What about the GI50 (SN12C renal) of the same compound?
**A.** Its GI50 is over 100 µM.

**Q.** What about the TGI (SN12C renal) of the same compound?
**A.** The TGI was over 100 µM.

**Q.** And the GI50 (K-562 leukemia)?
**A.** Its GI50 is over 100 µM.

**Q.** What about the TGI (K-562 leukemia) of the same compound?
**A.** The TGI was over 100 µM.

**Q.** What about the GI50 (U251 CNS) of the same compound?
**A.** The GI50 was 13.9 µM.

**Q.** What about the TGI (U251 CNS) of the same compound?
**A.** The TGI was over 100 µM.

**Q.** What about the GI50 (SNB-19 CNS) of the same compound?
**A.** The GI50 was 4.51 µM.

**Q.** And the TGI (SNB-19 CNS)?
**A.** Its TGI is 83.2 µM.

**Q.** And the GI50 (CCRF-CEM leukemia)?
**A.** The GI50 was over 100 µM.

**Q.** And the TGI (CCRF-CEM leukemia)?
**A.** The TGI was over 100 µM.

**Q.** What about the GI50 (UACC-257 melanoma) of the same compound?
**A.** Its GI50 is over 100 µM.

**Q.** What about the TGI (UACC-257 melanoma) of the same compound?
**A.** Its TGI is over 100 µM.

**Q.** What about the GI50 (HOP-92 NSCLC) of the same compound?
**A.** The GI50 was 4.43 µM.

**Q.** What about the TGI (HOP-92 NSCLC) of the same compound?
**A.** Its TGI is 45.5 µM.

**Q.** And the GI50 (A498 renal)?
**A.** The GI50 was 42 µM.

**Q.** And the TGI (A498 renal)?
**A.** Its TGI is over 100 µM.

**Q.** And the GI50 (SNB-75 CNS)?
**A.** Its GI50 is 3.74 µM.

**Q.** And the TGI (SNB-75 CNS)?
**A.** Its TGI is 28 µM.

**Q.** And the GI50 (KM12 colon)?
**A.** Its GI50 is over 100 µM.

**Q.** And the TGI (KM12 colon)?
**A.** The TGI was over 100 µM.

**Q.** What about the GI50 (CAKI-1 renal) of the same compound?
**A.** The GI50 was 5.76 µM.

**Q.** And the TGI (CAKI-1 renal)?
**A.** The TGI was over 100 µM.

**Q.** What about the GI50 (DU-145 prostate) of the same compound?
**A.** Its GI50 is over 100 µM.

**Q.** And the TGI (DU-145 prostate)?
**A.** The TGI was over 100 µM.

**Q.** And the GI50 (SK-OV-3 ovarian)?
**A.** Its GI50 is 6.57 µM.

**Q.** And the TGI (SK-OV-3 ovarian)?
**A.** Its TGI is over 100 µM.

**Q.** And the GI50 (HT29 colon)?
**A.** Its GI50 is over 100 µM.

**Q.** And the TGI (HT29 colon)?
**A.** Its TGI is over 100 µM.

**Q.** What about the GI50 (BT-549 breast) of the same compound?
**A.** The GI50 was 7.98 µM.

**Q.** And the TGI (BT-549 breast)?
**A.** Its TGI is over 100 µM.

**Q.** What about the GI50 (NCI/ADR-RES ovarian) of the same compound?
**A.** Its GI50 is 5.57 µM.

**Q.** What about the TGI (NCI/ADR-RES ovarian) of the same compound?
**A.** Its TGI is over 100 µM.

**Q.** What about the GI50 (ACHN renal) of the same compound?
**A.** The GI50 was 6.23 µM.

**Q.** What about the TGI (ACHN renal) of the same compound?
**A.** The TGI was over 100 µM.

**Q.** And the GI50 (786-0 renal)?
**A.** Its GI50 is 9.26 µM.

**Q.** What about the TGI (786-0 renal) of the same compound?
**A.** Its TGI is 42.1 µM.

**Q.** What about the GI50 (SW-620 colon) of the same compound?
**A.** Its GI50 is over 100 µM.

**Q.** What about the TGI (SW-620 colon) of the same compound?
**A.** Its TGI is over 100 µM.

**Q.** What about the GI50 (TK-10 renal) of the same compound?
**A.** The GI50 was 10.4 µM.

**Q.** And the TGI (TK-10 renal)?
**A.** The TGI was 28.6 µM.

**Q.** What about the GI50 (MOLT-4 leukemia) of the same compound?
**A.** The GI50 was over 100 µM.

**Q.** And the TGI (MOLT-4 leukemia)?
**A.** The TGI was over 100 µM.

**Q.** And the GI50 (OVCAR-8 ovarian)?
**A.** Its GI50 is 3.76 µM.

**Q.** What about the TGI (OVCAR-8 ovarian) of the same compound?
**A.** Its TGI is over 100 µM.

**Q.** What about the GI50 (NCI-H226 lung) of the same compound?
**A.** Its GI50 is 3.51 µM.

**Q.** What about the TGI (NCI-H226 lung) of the same compound?
**A.** Its TGI is over 100 µM.

**Q.** What about the GI50 (HS 578T breast) of the same compound?
**A.** Its GI50 is 6.26 µM.

**Q.** And the TGI (HS 578T breast)?
**A.** Its TGI is over 100 µM.

**Q.** And the GI50 (A549 NSCLC)?
**A.** Its GI50 is 19.6 µM.

**Q.** What about the TGI (A549 NSCLC) of the same compound?
**A.** The TGI was over 100 µM.

**Q.** What about the GI50 (SF-295 CNS) of the same compound?
**A.** Its GI50 is 10.2 µM.

**Q.** And the TGI (SF-295 CNS)?
**A.** The TGI was 46.8 µM.

**Q.** What about the GI50 (COLO 205 colon) of the same compound?
**A.** Its GI50 is over 100 µM.

**Q.** What about the TGI (COLO 205 colon) of the same compound?
**A.** The TGI was over 100 µM.

**Q.** What about the GI50 (RXF 393 renal) of the same compound?
**A.** Its GI50 is 3.58 µM.

**Q.** And the TGI (RXF 393 renal)?
**A.** Its TGI is 30.1 µM.

**Q.** What about the GI50 (MALME-3M melanoma) of the same compound?
**A.** The GI50 was 5.06 µM.

**Q.** And the TGI (MALME-3M melanoma)?
**A.** Its TGI is over 100 µM.
